Data reported in patent US20110118192A1, “METHODS AND COMPOSITIONS FOR TREATING T-CELL LEUKEMIA” (priority 2007, published 2011).
“Also recorded” adds a separate entry of the source.

Experiments:
[1] = tested on: NOTCH1 processing; test: Western blot analysis of activated NOTCH1 (NOTCH1IC) in GSI-sensitive and GSI-resistant T-ALL cell lines; type: cell-based, human; conditions: Comp E 100 nM, 24 hours
Protocol: FIG. 7. CompE treatment effectively blocks NOTCH1 processing in GSI-sensitive and resistant T-ALL cells. Western blot analysis of activated NOTCH1 (NOTCH1IC) levels in GSI-sensitive and resistant cell lines after 24 hours treatment with Comp E (100 nM). α-Tubulin levels are shown as loading control. Lower molecular weight bands correspond to activated NOTCH1 protein in cell lines harboring mutations that result in C-terminal truncations of the PEST domain (NOTCH 1IC-ΔPEST).
(§1) Antibodies against activated NOTCH1 (Val1744, Cell Signaling); PTEN (clone 6H2.1, Cascade Biosciences), phospho-AKT (Ser473), AKT (Cell Signaling), LC3, and α-tubulin (TU-02, Santa Cruz Biotechnology) were used according to standard procedures. PTEN immunostaining of formalin-fixed paraffin-embedded tissue sections was performed after heat-induced epitope retrieval in a microwave in citrate buffer (pH6.0). PTEN antibody (Zymed) was used at a 1:50 dilution. Slides were incubated at room temperature overnight before antigen detection using a Ventana automated staining platform (Ventana) and diaminobenzidine (DAB) detection.

[2] = tested on: DELTEX1; test: Quantitative RT-PCR analysis of DELTEX1 expression in GSI-sensitive and resistant T-ALL cell lines; type: cell-based, human; conditions: Comp E 100 nM, 24 hours
Protocol: FIG. 8. CompE treatment effectively down regulates the expression of DELTEX1 in GSI-sensitive and resistant T-ALL cells. (a and b) Quantitative RT-PCR analysis of DELTEX1 expression in GSI-sensitive and resistant cell lines after 24 hours of treatment with Comp E (100 nM). Relative expression levels were calculated by the ΔΔCt method using GAPDH as a reference control. Data are means +/− standard deviation.
(§2) Total RNA from T-ALL cell lines was extracted with RNAqueous kit (Ambion) following the manufacturer's instructions. cDNA was generated with the ThermoScript RT-PCR system (Invitrogen) and analyzed by quantitative real-time PCR (SYBR Green RT-PCR Core Reagents kit and the 7300 Real-Time PCR System, both from Applied Biosystems). Similar procedures were used to analyze RNA from DN3 cells purified from OP9 cocultures: Trizol method (Invitrogen) for RNA isolation, Omniscript RT kit (Qiagen) for cDNA synthesis and QuantiTect SYBR Green PCR kit (Qiagen) and the Applied Biosystems Sequence Detection System 7000 for PCR. Relative expression levels were based on GAPDH and β-actin as reference controls.

[3] = tested on: CUTLL1 cells; test: Cell size (flow cytometry) and cell growth (MTT) assays in CUTLL1 cells; type: cell-based, human; conditions: CompE 100 nM for 4 days
Protocol: (§3) FIG. 2. PTEN loss and AKT activation induce GSI resistance in T-ALL. […] No protective effect was observed by expression of a control shRNA targeting the luciferase gene (shRNA LUC). Mean FSC-H values for GSI and vehicle only treatment controls are indicated. Bar graphs represent means +/− standard deviation of triplicate samples. P values were derived from Student's t-test.
(§4) Changes in cell size were monitored by flow cytometry after NOTCH1 inactivation by GSI treatment (CompE 100 nM) and upon lentiviral shRNA knock-down of NOTCH1. Cell growth ratios were determined by a colorimetric assay using the Cell Proliferation Kit I (MTT) (Roche) in cells treated with inhibitors or vehicle treated controls.

[4] = tested on: DND41 cells; test: Cell size (flow cytometry) and cell growth (MTT) assays in DND41 cells; type: cell-based, human; conditions: CompE 100 nM for 4 days
Protocol: as §3, §4

[5] = tested on: PTEN; test: Real-time PCR analysis of PTEN transcript levels upon NOTCH1 inhibition by GSI; type: cell-based, human; conditions: GSI-sensitive/PTEN-positive cells (CUTLL1, HPB-ALL)
Source text: (§5) FIG. 3. NOTCH1 regulates PTEN expression, AKT signaling and glucose metabolism. (a) Real-time PCR analysis of PTEN transcript levels upon NOTCH1 inhibition by GSI in CUTLL1 and HPB-ALL relative to (DMSO) controls. GAPDH levels were used as reference control. (b) Western blot analysis of PTEN and p-AKT (Ser473) in GSI sensitive T-ALL cell lines treated with CompE. AKT and α-Tubulin are shown as loading controls. (c) Real-time PCR analysis of Hes1 and PTEN expression in mouse DN3 thymocytes cocultured with stromal cells (OP9) or stromal cells expressing the NOTCH1 ligand Delta-like-1 (OP9-DL1). Data are means +/− standard deviation of duplicate (day 1) and triplicate (day 2) experiments. […]
as §2, with “Relative expression levels were based on GAPDH and β-actin as reference controls.” left out

[6] = tested on: p-AKT (Ser473); test: Western blot analysis of PTEN and p-AKT (Ser473) in GSI sensitive T-ALL cell lines; type: cell-based, human; conditions: GSI-sensitive/PTEN-positive T-ALL cell lines
Source text: as §5, with “experiments. (d) Glucose uptake analysis in HPB-ALL and P12ICHIKAWA T-ALL cell lines in basal conditions (vehicle treatment only). (e) Glucose oxidation analysis in HPB-ALL and P12-ICHIKAWA T-ALL cell lines in basal conditions (vehicle treatment only). (f) Effects of GSI treatment in glucose uptake in HPB-ALL and P12-ICHIKAWA T-ALL cells. (g) Effects of GSI treatment in glucose oxidation in HPB-ALL and P12-ICHIKAWA T-ALL cells. Data shown in (d) and (f) are means +/− standard deviation of triplicates. Data shown in (e) and (g) are means +/− standard deviation of duplicates. P values in (a) and (c)-(g) were derived from Student's t-test.” for “experiments.”

[7] = tested on: HPB-ALL cells; test: Glucose uptake and oxidation in HPB-ALL cells; type: cell-based, human; conditions: CompE 100 nM for 96 hours
Source text: as §5, with “experiments. (d) Glucose uptake analysis in HPB-ALL and P12ICHIKAWA T-ALL cell lines in basal conditions (vehicle treatment only). (e) Glucose oxidation analysis in HPB-ALL and P12-ICHIKAWA T-ALL cell lines in basal conditions (vehicle treatment only).” for “experiments.”
(§6) Glucose uptake and oxidation were analyzed in T-ALL cells treated with GSI (CompE 100 nM for 96 hours) or vehicle only (DMSO) controls. […] For glucose uptake, cells were incubated with 0.1 mM (2 μCi/ml) 2-[3H]-deoxy-glucose, then washed in cold PBS and solubilized in 0.1% SDS and analyzed by scintillation counting. […] Glucose oxidation was measured as the amount of ^14CO2 captured in glass fiber filters previously soaked in 5% KOH. […]

[8] = tested on: P12ICHIKAWA cells; test: Glucose uptake and oxidation in P12-ICHIKAWA cells; type: cell-based, human; conditions: CompE 100 nM for 96 hours
Source text: as §5, with “experiments. (d) Glucose uptake analysis in HPB-ALL and P12ICHIKAWA T-ALL cell lines in basal conditions (vehicle treatment only). (e) Glucose oxidation analysis in HPB-ALL and P12-ICHIKAWA T-ALL cell lines in basal conditions (vehicle treatment only).” for “experiments.”
as §6

[9] = tested on: CUTLL1 cells; test: Autophagy analysis (electron microscopy, LC3 Western blot) in CUTLL1 cells; type: cell-based, human
Protocol: FIG. 11. […] (a, b) Transmission electron microscopy analysis of an early pass culture of CUTLL1 cells treated with vehicle control (DMSO) or GSI ([…] CompE) for 6 days. White arrow heads indicate phagosomes. Black arrowheads indicate mitochondria. (c) Quantitation of double membrane structures excluding mitochondria in control (DMSO) and GSI (CompE)-treated cells. Horizontal lines indicate the median. P values were derived from the Wilcoxon rank sum test. (d) Western blot analysis of the phagosome-associated LC3 protein in CUTLL1 cells treated with DMSO or CompE for 48 hours.
as §1
Electron microscopy. […] Double membrane structures, excluding mitochondria, were counted in sample preparations of an early-pass culture of CUTLL1 cells treated with DMSO or CompE (500 nM) for 6 days.

[10] = tested on: Drosophila ey-Gal4>DI flies; test: Drosophila DAPT treatments of flies overexpressing Delta (ey-Gal4>DI); type: in vivo
Source text: FIG. 16. Inhibition of NOTCH signaling with GSI can suppress overgrowth caused by overexpression of Delta in vivo. (a) Quantification of NOTCH-like eye growth phenotypes associated with treatment with the presenilin/γ-secretase inhibitor DAPT in flies that overexpressed the NOTCH ligand Delta, during the proliferation phase of eye development. Genotype is ey-Gal4 UAS-DI (hereafter, ey-Gal4>DI). (b) Quantification of other NOTCH-like wing phenotypes (loss of wing margin and small wing size) in the ey-Gal4>DI treated animals. For each of the DAPT concentrations shown, the number of eyes and wings quantified were: n=215 (0 mM of DAPT), n=202 (0.25 mM), n=455 (0.5 mM) and n=318 (1 mM). Representative data from two independent experiments are shown.
Drosophila DAPT treatments. The γ-secretase inhibitor DAPT prevents NOTCH processing, translocation and signaling in cell culture and induces developmental defects in Drosophila similar to those caused by genetic reduction of NOTCH signaling. Stock solutions of the compound in ethanol were added to 2.5 ml of distilled water and dried potato food were prepared. Flies carrying a Delta transgene (UAS-DI) and the eye-specific Gal4 driver, ey-Gal4 (hereafter, ey-Gal4>DI) were kept on standard fly food at 26° C. for 3 days (72 hours) and the progeny were collected and transferred to the vials containing the food mixed with DAPT and allowed to progress through development in the presence of DAPT until closure.

[11] = non-lethal doses (1 mM) in food

Row | Compound | NOTCH1 processing (activated NOTCH1, NOTCH1IC levels) [1] | NOTCH1 signaling (DELTEX1 expression) [2] | cell growth [3] | cell size (FSC-H) [3] | cell growth [4] | cell size [4] | PTEN expression (transcript levels) [5] | AKT Ser473 phosphorylation [6] | glucose oxidation [7] | glucose uptake [7] | glucose oxidation [8] | glucose uptake [8] | autophagy (transmission electron microscopy, double membrane structures) ([9]; 500 nM CompE for 6 days) | phagosome-associated LC3 protein (Western blot) ([9]; CompE for 48 hours) | eye growth induced by Delta overexpression ([10]; ey-Gal4>DI flies, DAPT in food) | wing phenotype ([10]; ey-Gal4>DI flies, DAPT in food) | Delta-induced eye overgrowth [10, 11] | eye and wing size [10, 11]
1 | C[C@H](NC(=O)Cc1cc(F)cc(F)c1)C(=O)N[C@H]1N=C(c2ccccc2)c2ccccc2N(C)C1=O [CompE, (2S)-2-{[(3,5-Difluorophenyl)acetyl]amino}-N-[(3S)1-methyl-2-oxo-5-phenyl-2,3-dihydro-1H-1,4-benzodiazepin-3-yl]propanamide] | effectively block NOTCH1 processing in all cell lines; also recorded: showed NOTCH1 inhibition | effectively blocks NOTCH1 signaling and downregulates the expression of genes directly regulated by NOTCH1 | decreased cell growth | Decreased cell size | reduced cell growth | cell size defects | significant upregulation of PTEN expression | decreased Ser473 phosphorylation on AKT | significant reductions | significant reductions | not affected | not affected | induces autophagy | induced the LC3-II isoform | – | – | – | –
2 | C[C@H](NC(=O)Cc1cc(F)cc(F)c1)C(=O)N[C@H](C(=O)OC(C)(C)C)c1ccccc1 [DAPT, N-[N-(3,5-difluorophenacetyl)-L-alanyl]-Sphenylglycine-t-butylester] | – | – | – | – | – | – | – | – | – | – | – | – | – | – | suppression of eye overgrowth; also recorded: prevented eye growth induced by Delta overexpression | wing defects equivalent to a genetic reduction of NOTCH activity | inhibits Delta-induced overgrowth | eyes and wings smaller than wild type
